In patent US20060014835A1, “Therapeutic agent for chronic obstructive pulmonary disease” (priority 2002, published 2006):

System: rat
Experiment: single oral administration toxicity to rat (minimum lethal dose)
Assay type: in vivo
Method: The toxicity of the compounds of the present invention is very low and therefore, the compounds may be considered safe for pharmaceutical use. For example, a minimum of lethal dose of N-hydroxy-5-hydroxy-2(S)-methyl-4(S) (4-phenoxybenzoyl)aminopentanamide and N-hydroxy-5-ethoxymethyloxy-2(S)-methyl-4(S)-(4-phenoxybenzoyl)aminopentanamide by single oral administration to rat was 2000 mg/kg.

| Compound | minimum of lethal dose [mg/kg] |
| --- | --- |
| C[C@@H](C[C@@H](CO)NC(=O)c1ccc(Oc2ccccc2)cc1)C(=O)NO [Compound (1), N-hydroxy-5-hydroxy-2 (S)-methyl-4(S)-(4-phenoxybenzoyl) aminopentanamide] | 2000 |
| CCOCOC[C@H](C[C@H](C)C(=O)NO)NC(=O)c1ccc(Oc2ccccc2)cc1 [Compound (2), N-hydroxy 5-ethoxymethyloxy-2(S)-methyl-4(S)-(4-phenoxybenzoyl) aminopentanamide] | 2000 |
